US20220324835A1 (Nurix Therapeutics, Inc., priority 2018, published 2022)

Assays:
Cbl-b [1] = molecular target: T1, Cbl-b (Homo sapiens, UniProt Q13191); assay: Cbl-b inhibition assay (Cbl-b activity assay, FRET, Biological Example 1; 100 mM NaCl, 60 nM Src kinase); format: biochemical; conditions: upper bound stated in text lists; read-out: IC50 values in the Cbl-b inhibition assay of Biological Example 1
Summary of the method: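 N-terminally biotinylated Avi-tagged Cbl-b was mixed with Src kinase, UbcH5B covalently conjugated to Bodipy-fluorescein ubiquitin, and streptavidin-terbium. Src phosphorylation lets Cbl-b bind UbcH5B-Ub, giving terbium-fluorescein FRET; inhibition is read as loss of FRET signal.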

T-cell [2] = assay: IL-2 secretion from T-cells stimulated with anti-CD3 antibody alone (Biological Example 2); format: cell-based; conditions: primary human total T-cells, read-out: IL-2 secretion, Anti-CD3 stimulation, fold change over baseline; for fold induction at 1 µM: 1 μM compound; for fold induction at 8 µM: 8 μM compound
Cbl-b (residues 36-427) = Cbl-b (residues 36-427) (Homo sapiens, UniProt Q13191); assay: Cbl-b binding assay (SPR, Biacore T200); conditions: 20° C., 1:1 binding model
Chain of Cbl-b (residues 36-427) (Q13191 36-427): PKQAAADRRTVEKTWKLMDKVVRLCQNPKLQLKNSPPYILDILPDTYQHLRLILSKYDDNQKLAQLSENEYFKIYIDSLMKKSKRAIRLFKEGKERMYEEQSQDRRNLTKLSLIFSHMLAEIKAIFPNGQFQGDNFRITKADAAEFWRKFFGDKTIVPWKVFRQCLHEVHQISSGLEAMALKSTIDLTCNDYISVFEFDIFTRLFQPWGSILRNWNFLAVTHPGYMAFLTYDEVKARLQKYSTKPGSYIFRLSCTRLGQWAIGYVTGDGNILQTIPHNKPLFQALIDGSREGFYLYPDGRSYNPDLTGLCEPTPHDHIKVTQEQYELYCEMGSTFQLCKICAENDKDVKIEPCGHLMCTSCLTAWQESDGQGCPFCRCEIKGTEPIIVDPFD
Summary of the method: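 Affinities derived from global 1:1 steady-state or kinetic fits of double-referenced, solvent-corrected SPR data, 20 °C, NeutrAvidin-capture chip. Compound series (top 100 or 50 μM, 8–10 points) injected 50 s, 90–180 s dissociation. Asterisked values used 50 mM instead of 100 mM NaCl and 30 nM Src kinase.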

Cbl-b [3] = molecular target: T1, Cbl-b; assay: Cbl-b activity assay (Cbl-b inhibition assay), TR-FRET of Cbl-b interaction with UbcH5B-Ub; format: biochemical; conditions: assay buffer with 100 mM NaCl, 60 nM Src kinase; read-out: Cbl-b activity IC50
Summary of the method: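 TR-FRET readout of Cbl-b binding to Bodipy-fluorescein N-terminally labeled Ub conjugated to UbcH5B C85K, measured with compound present. After compound incubation, 60 nM Src kinase with 1 mM ATP and 5 mM MgCl2 (final) was added for 1.5 h, then a further 1 h incubation; asterisked values used 50 mM NaCl buffer and 30 nM Src.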

T-cell [4] = assay: CD25 cell surface staining on T-cells co-stimulated with anti-CD3 and anti-CD28 antibody (Biological Example 2); format: cell-based, human; conditions: Homo sapiens, T-cell, primary human total T-cells, baseline = anti-CD3/anti-CD28 stimulated cells without inhibitor, read-out: CD25 staining, Anti-CD3/Anti-CD28 stimulation, fold change over baseline; for fold induction at 0.3 µM: 0.3 μM compound; for fold induction at 1 µM: 1 μM compound; for fold induction at 4 µM: 4 μM compound
Summary of the method: (§1)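 No assay protocol given; T-cells stimulated with anti-CD3 alone or anti-CD3 plus anti-CD28, with or without Cbl-b inhibitor. Activation read as IL-2 secretion or CD25 surface staining, expressed as fold over baseline from uninhibited cells […].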

T-cell [5] = assay: CD25 cell surface staining on T-cells stimulated with anti-CD3 antibody alone (Biological Example 2); format: cell-based; conditions: primary human total T-cells, baseline = anti-CD3/anti-CD28 stimulated cells without inhibitor, read-out: CD25 staining, Anti-CD3 stimulation, fold change over baseline; for fold induction at 1 µM: 1 μM compound; for fold induction at 8 µM: 8 μM compound
T-cell [6] = assay: IL-2 secretion from T-cells co-stimulated with anti-CD3 and anti-CD28 antibody (Biological Example 2); format: cell-based, human; conditions: Homo sapiens, T-cell, primary human total T-cells, baseline = anti-CD3/anti-CD28 stimulated cells without inhibitor, read-out: IL-2 secretion, Anti-CD3/Anti-CD28 stimulation, fold change over baseline; for fold induction at 0.3 µM: 0.3 μM compound; for fold induction at 1 µM: 1 μM compound; for fold induction at 4 µM: 4 μM compound
Summary of the method: as §1

T1 sequence (Q13191 36-427): as above

Structure (SMILES)	IC50 (Cbl-b [1])	fold induction at 1 µM (T-cell [2])	fold induction at 8 µM (T-cell [2])	Kd (Cbl-b (residues 36-427))	IC50 (Cbl-b [3])	fold induction at 0.3 µM (T-cell [4])	fold induction at 1 µM (T-cell [4])	fold induction at 4 µM (T-cell [4])	fold induction at 1 µM (T-cell [5])	fold induction at 8 µM (T-cell [5])	fold induction at 0.3 µM (T-cell [6])	fold induction at 1 µM (T-cell [6])	fold induction at 4 µM (T-cell [6])
CC(c1cc2c(c(C(F)(F)F)c1)CN(c1cccc([C@H](C)Cc3nncn3C)c1)C2=O)N1CC[C@H](O)C1 (stereo partly drawn) [Compound 416, 6-(1-((S)-3-hydroxypyrrolidin-1-yl)ethyl)-2-(3-((R)-1-(4-methyl-4H-1,2,4-triazol-3-yl)propan-2-yl)phenyl)-4-(trifluoromethyl)isoindolin-1-one]	≤ 100 nM	0.151 to 0.2	> 0.201	< 100 nM	< 100 nM	1.31 to 1.5	1.31 to 1.5	1.51 to 1.75	> 1	> 1	2.51 to 5	> 7.5	> 7.5
Cc1n[nH]c(C)c1-c1cc2c(c(C(F)(F)F)c1)CN(c1cccc([C@H](C)Cc3nncn3C)c1)C2=O [Compound 378, 6-(3,5-dimethyl-1H-pyrazol-4-yl)-2-{3-[(2R)-1-(4-methyl-4H-1,2,4-triazol-3-yl)propan-2-yl]phenyl}-4-(trifluoromethyl)-2,3-dihydro-1H-isoindol-1-one]	≤ 100 nM	> 0.201	> 0.201	< 100 nM	< 100 nM	1.31 to 1.5	1.51 to 1.75	> 1.76	> 1	> 1	2.51 to 5	> 7.5	> 7.5
Cc1c[nH]nc1C[C@@H](C)c1cccc(N2Cc3c(cc(C(=O)N4C[C@@H](O)C[C@H]4C)cc3C(F)(F)F)C2=O)c1 [Compound 464, 6-((2R,4S)-4-hydroxy-2-methylpyrrolidine-1-carbonyl)-2-(3-((R)-1-(4-methyl-1H-pyrazol-3-yl)propan-2-yl)phenyl)-4-(trifluoromethyl)isoindolin-1-one]	≤ 100 nM	0.151 to 0.2	> 0.201	< 100 nM	< 100 nM	1.01 to 1.3	1.01 to 1.3	1.31 to 1.5	> 1	> 1	1.01 to 2.5	2.51 to 5	> 7.5
C[C@H](Cc1nncn1C)c1cccc(N2Cc3c(cc(C4CC4)nc3C3CC3)C2=O)c1 [Compound 370, 4,6-dicyclopropyl-2-{3-[(2R)-1-(4-methyl-1,2,4-triazol-3-yl)propan-2-yl]phenyl}-3H-pyrrolo[3,4-c]pyridin-1-one]	≤ 300 nM	0.051 to 0.1	> 0.201	100 to 300 nM	100 to 300 nM	1.01 to 1.3	1.01 to 1.3	> 1.76	0.601 to 0.8	0.801 to 1	1.01 to 2.5	1.01 to 2.5	5 to 7.5
C[C@H](Cc1nncn1C)c1cccc(N2Cc3c(cc(CN4CC(F)(F)C4)cc3C(F)(F)F)C2=O)c1 [Compound 402, (R)-6-((3,3-difluoroazetidin-1-yl)methyl)-2-(3-(1-(4-methyl-4H-1,2,4-triazol-3-yl)propan-2-yl)phenyl)-4-(trifluoromethyl)isoindolin-1-one]	≤ 100 nM	0.151 to 0.2	> 0.201	< 100 nM	< 100 nM	1.01 to 1.3	1.31 to 1.5	1.31 to 1.5	> 1	> 1	5 to 7.5	> 7.5	> 7.5
C[C@H](Cc1nncn1C)c1cccc(N2Cc3c(cc(C(C)(C)O)cc3C(F)(F)F)C2=O)c1 [Compound 374, (R)-6-(2-hydroxypropan-2-yl)-2-(3-(1-(4-methyl-4H-1,2,4-triazol-3-yl)propan-2-yl)phenyl)-4-(trifluoromethyl)isoindolin-1-one]	≤ 100 nM	0.151 to 0.2	> 0.201	100 to 300 nM	< 100 nM	1.01 to 1.3	1.31 to 1.5	1.31 to 1.5	0.801 to 1	> 1	2.51 to 5	5 to 7.5	> 7.5
Cn1cnnc1C(F)(F)[C@](C)(F)c1cccc(N2Cc3c(cc(CN4CC[C@@H](S(C)(=O)=O)C4)cc3C(F)(F)F)C2=O)c1 [Compound 458, 6-(((R)-3-(Methylsulfonyl)pyrrolidin-1-yl)methyl)-2-(3-((R)-1,1,2-trifluoro-1-(4-methyl-4H-1,2,4-triazol-3-yl)propan-2-yl)phenyl)-4-(trifluoromethyl)isoindolin-1-one]	≤ 100 nM	0.151 to 0.2	> 0.201	< 100 nM	< 100 nM	1.01 to 1.3	1.01 to 1.3	1.31 to 1.5	0.801 to 1	> 1	2.51 to 5	5 to 7.5	> 7.5
Cn1cnnc1[C@H](F)[C@](C)(F)c1cccc(N2Cc3c(cc(C4CC4)cc3C(F)(F)F)C2=O)c1 [Compound 481a, 6-cyclopropyl-2-[3-[(1S,2R)-1,2-difluoro-1-(4-methyl-4H-1,2,4-triazol-3-yl)propan-2-yl]phenyl]-4-(trifluoromethyl)-2,3-dihydro-1H-isoindol-1-one]	–	0.051 to 0.1	0.101 to 0.15	100 to 300 nM	100 to 300 nM	1.01 to 1.3	1.01 to 1.3	1.01 to 1.3	0.801 to 1	> 1	< 1	1.01 to 2.5	2.51 to 5
Cc1conc1C[C@@H](C)c1cccc(N2Cc3c(cc(C(=O)N4CC[C@H](O)C4)cc3C(F)(F)F)C2=O)c1 [Compound 407, 6-((S)-3-Hydroxypyrrolidine-1-carbonyl)-2-(3-((R)-1-(4-methylisoxazol-3-yl)propan-2-yl)phenyl)-4-(trifluoromethyl)isoindolin-1-one]	≤ 100 nM	0.101 to 0.15	> 0.201	< 100 nM	< 100 nM	1.01 to 1.3	1.01 to 1.3	1.01 to 1.3	> 1	> 1	2.51 to 5	5 to 7.5	> 7.5
C[C@H](O)CNc1cc([C@H](C)Cc2nncn2C)cc(N2Cc3c(cccc3C(F)(F)F)C2=O)n1 [Compound 364, 2-(6-((S)-2-hydroxypropylamino)-4-((R)-1-(4-methyl-4H-1,2,4-triazol-3-yl)propan-2-yl)pyridin-2-yl)-4-(trifluoromethyl)isoindolin-1-one]	–	0.051 to 0.1	0.101 to 0.15	1000 to 3000 nM	301 to 1000 nM	1.01 to 1.3	1.01 to 1.3	1.01 to 1.3	0.601 to 0.8	0.601 to 0.8	1.01 to 2.5	1.01 to 2.5	1.01 to 2.5
